From patent US11492597B2, “Method for establishing colorectal cancer HK2 reporter gene cell line” (Guangdong Medical University, priority 2018, dated 2022)

Legend:
EGFP = assay: 2-MeOE2 treatment of HK2 reporter cell line, transcriptional level of EGFP reporter; format: cell-based; details: HK2 cell line treated for 24 h or 48 h, 10 uM, relative transcriptional level vs untreated control
Method: (§1) 2-Methoxyestradiol (2-MeOE2) is an HIF inhibitor, and at present, has entered an anti-tumor clinical second-stage test stage. […] The HK2 cell line is treated for 24 h or 48 h in 2-MeOE2 (10 uM), and the relative expression changes of the transcriptional level of HK2 and EGFP and those untreated as a control are analyzed. […] The experimental result further proves that the colorectal cancer HK2 reporter gene cell line constructed in the present invention can be used for screening and evaluating related anticancer drugs.

HK2 = assay: 2-MeOE2 treatment of HK2 reporter cell line, transcriptional level of HK2; format: cell-based; details: HK2 cell line treated for 24 h or 48 h, 10 uM, relative transcriptional level vs untreated control
Method: as §1

## COc1cc2c(cc1O)CC[C@@H]1[C@@H]2CC[C@]2(C)[C@@H](O)CC[C@@H]12 [2-MeOE2, 2-Methoxyestradiol]
EGFP
  expression of the EGFP: synergistically inhibited
HK2
  expression level of HK2: obviously inhibited
